# ± gives the expanded uncertainty stated by the source.
# Assay: Molar enthalpy of transition or fusion
# Details: Crystal; Adiabatic calorimetry
smiles,measurement,value
[2H]O[2H] [water-d2],Molar enthalpy of transition or fusion,1.47 ± 0.0225 kcal/mol
